According to US12338243B2, “P2X7 modulators” (JANSSEN PHARMACEUTICA NV, priority 2014, dated 2025):

Key:
[1] = target: T1, rat P2X7 (Rattus norvegicus, UniProt Q64663); assay: Ca2+ flux (FLIPR) in 1321N1 cells expressing recombinant rat P2X7 channel; details: FLIPR (rat) IC50 (μM), 250 μM BzATP
T1 sequence (Q64663 1-595): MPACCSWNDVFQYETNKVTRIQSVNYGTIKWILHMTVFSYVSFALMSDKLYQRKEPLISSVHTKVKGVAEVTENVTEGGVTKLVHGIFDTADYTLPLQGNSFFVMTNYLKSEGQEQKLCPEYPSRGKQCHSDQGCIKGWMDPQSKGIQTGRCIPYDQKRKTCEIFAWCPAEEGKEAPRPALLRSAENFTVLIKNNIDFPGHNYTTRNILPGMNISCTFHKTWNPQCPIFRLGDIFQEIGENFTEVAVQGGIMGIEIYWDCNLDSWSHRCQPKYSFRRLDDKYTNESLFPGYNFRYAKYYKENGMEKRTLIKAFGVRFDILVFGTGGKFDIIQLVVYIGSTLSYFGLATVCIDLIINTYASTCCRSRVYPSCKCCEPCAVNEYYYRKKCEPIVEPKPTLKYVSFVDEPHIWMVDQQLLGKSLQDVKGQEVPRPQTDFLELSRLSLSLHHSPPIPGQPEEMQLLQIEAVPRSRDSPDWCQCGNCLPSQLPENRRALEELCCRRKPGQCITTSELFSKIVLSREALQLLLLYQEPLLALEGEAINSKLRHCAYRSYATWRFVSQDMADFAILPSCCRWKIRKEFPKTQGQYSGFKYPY
Experimental: P2X7 Antagonism in Recombinant Human P2X7 Cells or Recombinant Rat P2X7 Cells: (a) Ca^2+ Flux and (b) Radioligand Binding
(a) Ca^2+ flux: 1321N1 cells expressing the recombinant human or rat P2X7 channel was cultured in HyQ DME/(HyClone/Dulbecco's Modified Eagle Medium) high glucose supplemented with 10% Fetal Bovine Serum (FBS) and appropriate selection marker. Cells were seeded at a density of 25000 cells/well (96-well clear bottom black walled plates) in 100 μl volume/well. On the day of the experiment, cell plates were washed with assay buffer, containing (in mM): 130 NaCl, 2 KCl, 1 CaCl2), 1 MgCl2, 10 HEPES, 5 glucose; pH 7.40 and 300 mOs. After the wash, cells were loaded with the Calcium-4 dye (Molecular Device) and incubated in the dark for 60 minutes. Test compounds were prepared at 250× the test concentration in neat DMSO. Intermediate 96-well compound plates were prepared by transferring 1.2 μL of the compound into 300 μL of assay buffer. A further 3× dilution occurred when transferring 50 μL/well of the compound plate to 100 μL/well in the cell plate. Cells were incubated with test compounds and dye for 30 minutes. […] The fluorescence change was measured 180 seconds after adding the agonist.

[2] = Biodistribution studies of radiotracer in healthy female Wistar rats; type: in vivo; details: for % ID blood: blood mass assumed 7% of body mass; for SUV blood / % ID carcass / % ID cerebellum / SUV cerebellum / % ID cerebrum / SUV cortex / % ID heart / SUV hippocampus / % ID intestines / % ID kidneys / % ID liver / % ID lungs / SUV rest of cerebrum / % ID spleen + pancreas / % ID stomach / SUV striatum / % ID urine / SUV whole cerebrum: mean ± SD, n = 3; for % ID bone: calculated to estimated total bone tissue (% ID/g bone * body mass* 0.12)
Experimental: HPLC analysis was performed on a LaChrom Elite HPLC system (Hitachi, Armstadt, Germany) connected to a UV spectrometer set at 220 nm. For the analysis of radiolabeled compounds, the HPLC eluate, after passage through the UV detector, was led over a shielded 3-inch NaI(Tl) scintillation detector connected to a multichannel analyser (Gabi box, Raytest, Straubenhardt, Germany). The output signal was recorded and analysed using a GINA Star data acquisition system (Raytest, Straubenhardt, Germany). Radioactivity in samples of biodistribution studies, cell uptake experiments and radiometabolite analysis was quantified using an automated gamma counter equipped with a 3-inch NaI(Tl) well crystal coupled to a multichannel analyser (Wallac 2480 Wizard, Wallac, Turku, Finland). Results were corrected for background radiation, physical decay and counter dead time.
Animals were housed in individually ventilated cages in a thermoregulated (˜22° C.), humidity-controlled facility under a 12 h/12 h light/dark cycle with access to food and water ad libitum. All animal experiments were conducted according to the Belgian code of practice for the care and use of animals, after approval from the KU Leuven University Ethics Committee for Animals.
The biodistribution studies were performed in healthy female Wistar rats (body weight, 185-220 g) at 2, 30 and 60 min after tracer injection (n=3/time point). […] The animals were sacrificed by decapitation at the indicated time points. Blood and major organs were collected in tared tubes and weighed. The radioactivity in the dissected organs and blood was counted using an automated gamma counter. For calculation of total blood radioactivity, blood mass was assumed to be 7% of the body mass.

SMILES: CC1c2nnc(-c3ccccn3)n2CCN1C(=O)c1cccc(Cl)c1Cl (stereo not drawn) [Example 1, (2,3-dichlorophenyl)(8-methyl-3-(pyridin-2-yl)-5,6-dihydro-[1,2,4]triazolo[4,3-a]pyrazin-7(8H)-yl)methanone]
- IC50 [1]: 1.21 µM

SMILES: C[C@H]1Cn2c(nnc2-c2ccc(F)cc2F)CN1C(=O)c1cccc(Cl)c1Cl [Example 50, (S)-(2,3-dichlorophenyl)(3-(2,4-difluorophenyl)-6-methyl-5,6-dihydro-[1,2,4]triazolo[4,3-a]pyrazin-7(8H)-yl)methanone]
- IC50 [1]: 1.68 µM

SMILES: C[C@H]1Cn2c(nnc2-c2ncc(F)cn2)CN1C(=O)c1cccc(C(F)(F)F)c1Cl [Example 74]
- IC50 [1]: 0.0101 µM

SMILES: C[C@H]1Cn2c(nnc2-c2cc([18F])ccn2)CN1C(=O)c1cccc(Cl)c1Cl [[^18F]68, (S)-(2,3-dichlorophenyl)(3-(4-[^18F]fluoropyridin-2-yl)-6-methyl-5,6-dihydro-[1,2,4]triazolo[4,3-a]pyrazin-7(8H)-yl)methanone]
- % ID blood ([2]; 2 min after tracer injection): 6.8 ± 0.6 % ID
- SUV blood ([2]; 2 min after tracer injection): 0.97 ± 0.08
- % ID blood ([2]; 30 min after tracer injection): 4.3 ± 0.3 % ID
- SUV blood ([2]; 30 min after tracer injection): 0.61 ± 0.04
- % ID blood ([2]; 60 min after tracer injection): 2.0 ± 0.5 % ID
- SUV blood ([2]; 60 min after tracer injection): 0.29 ± 0.07
- % ID bone ([2]; 2 min): 8.8 ± 0.8 % ID
- % ID bone ([2]; 30 min): 44.5 ± 3.8 % ID
- % ID bone ([2]; 60 min): 64.5 ± 5.9 % ID
- % ID carcass ([2]; 2 min after tracer injection): 40.8 ± 0.8 % ID
- % ID carcass ([2]; 30 min after tracer injection): 56.6 ± 2.8 % ID
- % ID carcass ([2]; 60 min after tracer injection): 60.4 ± 2.3 % ID
- % ID cerebellum ([2]; 2 min after tracer injection): 0.1 ± 0.0 % ID
- SUV cerebellum ([2]; 2 min after tracer injection): 1.21 ± 0.22
- % ID cerebellum ([2]; 30 min after tracer injection): 0.0 ± 0.0 % ID
- SUV cerebellum ([2]; 30 min after tracer injection): 0.33 ± 0.07
- % ID cerebellum ([2]; 60 min after tracer injection): 0.0 ± 0.0 % ID
- SUV cerebellum ([2]; 60 min after tracer injection): 0.38 ± 0.08
- % ID cerebrum ([2]; 2 min after tracer injection): 0.6 ± 0.0 % ID
- % ID cerebrum ([2]; 30 min after tracer injection): 0.1 ± 0.0 % ID
- % ID cerebrum ([2]; 60 min after tracer injection): 0.1 ± 0.0 % ID
- SUV cortex ([2]; 2 min after tracer injection): 1.27 ± 0.13
- SUV cortex ([2]; 30 min after tracer injection): 0.94 ± 0.29
- SUV cortex ([2]; 60 min after tracer injection): 0.69 ± 0.17
- % ID heart ([2]; 2 min after tracer injection): 0.9 ± 0.1 % ID
- % ID heart ([2]; 30 min after tracer injection): 0.2 ± 0.0 % ID
- % ID heart ([2]; 60 min after tracer injection): 0.1 ± 0.0 % ID
- SUV hippocampus ([2]; 2 min after tracer injection): 1.11 ± 0.10
- SUV hippocampus ([2]; 30 min after tracer injection): 0.23 ± 0.04
- SUV hippocampus ([2]; 60 min after tracer injection): 0.19 ± 0.03
- % ID intestines ([2]; 2 min after tracer injection): 10.6 ± 2.1 % ID
- % ID intestines ([2]; 30 min after tracer injection): 20.9 ± 6.0 % ID
- % ID intestines ([2]; 60 min after tracer injection): 11.2 ± 0.6 % ID
- % ID kidneys ([2]; 2 min after tracer injection): 3.3 ± 0.5 % ID
- % ID kidneys ([2]; 30 min after tracer injection): 1.1 ± 0.2 % ID
- % ID kidneys ([2]; 60 min after tracer injection): 0.9 ± 0.1 % ID
- % ID liver ([2]; 2 min after tracer injection): 34.6 ± 2.4 % ID
- % ID liver ([2]; 30 min after tracer injection): 7.5 ± 0.6 % ID
- % ID liver ([2]; 60 min after tracer injection): 3.61 ± 0.3 % ID
- % ID lungs ([2]; 2 min after tracer injection): 1.6 ± 0.1 % ID
- % ID lungs ([2]; 30 min after tracer injection): 0.7 ± 0.1 % ID
- % ID lungs ([2]; 60 min after tracer injection): 0.6 ± 0.2 % ID
- SUV rest of cerebrum ([2]; 2 min after tracer injection): 1.20 ± 0.11
- SUV rest of cerebrum ([2]; 30 min after tracer injection): 0.31 ± 0.06
- SUV rest of cerebrum ([2]; 60 min after tracer injection): 0.25 ± 0.04
- % ID spleen + pancreas ([2]; 2 min after tracer injection): 1.3 ± 0.2 % ID
- % ID spleen + pancreas ([2]; 30 min after tracer injection): 0.3 ± 0.1 % ID
- % ID spleen + pancreas ([2]; 60 min after tracer injection): 0.2 ± 0.0 % ID
- % ID stomach ([2]; 2 min after tracer injection): 1.5 ± 0.5 % ID
- % ID stomach ([2]; 30 min after tracer injection): 1.6 ± 0.9 % ID
- % ID stomach ([2]; 60 min after tracer injection): 10.7 ± 3.3 % ID
- SUV striatum ([2]; 2 min after tracer injection): 1.19 ± 0.13
- SUV striatum ([2]; 30 min after tracer injection): 0.24 ± 0.05
- SUV striatum ([2]; 60 min after tracer injection): 0.19 ± 0.03
- % ID urine ([2]; 2 min after tracer injection): 0.1 ± 0.0 % ID
- % ID urine ([2]; 30 min after tracer injection): 8.4 ± 1.8 % ID
- % ID urine ([2]; 60 min after tracer injection): 8.4 ± 1.8 % ID
- SUV whole cerebrum ([2]; 2 min after tracer injection): 1.20 ± 0.11
- SUV whole cerebrum ([2]; 30 min after tracer injection): 0.31 ± 0.06
- SUV whole cerebrum ([2]; 60 min after tracer injection): 0.25 ± 0.04
